Measured values: publication PMC11683865, “CACHE Challenge #1: Docking with GNINA Is All You Need” (Journal of Chemical Information and Modeling, 2024)
pKd: −log10 of the molar value. Like-named read-outs stand apart in the source and are kept apart here.

Biological target: T1, Leucine-rich repeat serine/threonine-protein kinase 2 (LRRK2), WD-40 repeat (WDR) domain (Homo sapiens, UniProt Q5S007)
T1 construct: WD-40 repeat (WDR) domain
T1 sequence (Q5S007 2142-2527): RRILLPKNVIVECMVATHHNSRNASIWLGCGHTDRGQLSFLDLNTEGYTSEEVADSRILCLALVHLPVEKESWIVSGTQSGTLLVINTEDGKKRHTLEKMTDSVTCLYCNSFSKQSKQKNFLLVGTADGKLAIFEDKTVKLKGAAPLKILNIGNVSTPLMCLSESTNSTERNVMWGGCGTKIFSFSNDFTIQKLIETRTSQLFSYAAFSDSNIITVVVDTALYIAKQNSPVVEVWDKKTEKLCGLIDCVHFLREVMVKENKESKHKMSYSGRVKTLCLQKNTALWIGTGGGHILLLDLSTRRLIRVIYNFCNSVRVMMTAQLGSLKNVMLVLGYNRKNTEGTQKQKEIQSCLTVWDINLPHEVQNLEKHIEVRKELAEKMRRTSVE
Assay: SPR
Type: binding

| Structure (SMILES) | pKd | pKd (read-out: Kd) |
| --- | --- | --- |
| O=C(CN1CCC2(C1)C(=O)Nc1ccccc12)Nc1ccc2c(c1)CCC2 (centres unmarked) [CACHE_1181_33] | < 4.00 |  |
| O=C(NCc1ccc[nH]c1=O)N1CCC(CCc2ccc(F)cc2F)CC1 [CACHE_1181_50] |  | < 4.00 |
